Laboratory results taken from article PMC10546487 (Journal of medicinal chemistry, 2022).

Molecular target: DOR (Mus musculus, UniProt P32300)
Test: Radioligand competition binding assay, DOR
Conditions: not given

DOR, sequence (P32300 whole entry): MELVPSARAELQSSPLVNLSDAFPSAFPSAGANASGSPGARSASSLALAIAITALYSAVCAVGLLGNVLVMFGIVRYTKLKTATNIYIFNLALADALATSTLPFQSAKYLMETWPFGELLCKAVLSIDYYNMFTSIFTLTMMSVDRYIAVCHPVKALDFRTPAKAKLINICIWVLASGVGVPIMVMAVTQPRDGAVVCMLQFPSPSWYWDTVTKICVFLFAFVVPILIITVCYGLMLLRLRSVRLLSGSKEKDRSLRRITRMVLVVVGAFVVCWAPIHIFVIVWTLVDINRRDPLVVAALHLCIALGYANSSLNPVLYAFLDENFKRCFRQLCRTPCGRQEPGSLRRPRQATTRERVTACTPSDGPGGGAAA

SMILES | Ki
O=C(N[C@@H]1CC[C@@]2(O)[C@H]3Cc4ccc(O)c5c4[C@@]2(CCN3CC2CC2)[C@H]1O5)c1cccc2c(Br)c[nH]c12 [Compound 6, 17-Cyclopropylmethyl-3,14β-dihydroxy-4,5α-epoxy-6β-(3-bromo-indole-7-carboxamido)morphinan] | 0.0116 ± 0.00268 µM
O=C(N[C@H]1CC[C@@]2(O)[C@H]3Cc4ccc(O)c5c4[C@@]2(CCN3CC2CC2)[C@H]1O5)c1cccc2c(C3CCCCC3)c[nH]c12 [Compound 33, 17-Cyclopropylmethyl-3,14β-dihydroxy-4,5α-epoxy-6α-(3-cyclo-hexyl-indole-7-carboxamido)morphinan] | 0.0186 ± 0.00724 µM
O=C(N[C@H]1CC[C@@]2(O)[C@H]3Cc4ccc(O)c5c4[C@@]2(CCN3CC2CC2)[C@H]1O5)c1cccc2c(C3CCCC3)c[nH]c12 [Compound 32, 17-Cyclopropylmethyl-3,14β-dihydroxy-4,5α-epoxy-6α-(3-cyclo-pentyl-indole-7-carboxamido)morphinan] | 0.0282 ± 0.0054 µM
O=C(N[C@H]1CC[C@@]2(O)[C@H]3Cc4ccc(O)c5c4[C@@]2(CCN3CC2CC2)[C@H]1O5)c1cccc2c(Br)c[nH]c12 [Compound 23, 17-Cyclopropylmethyl-3,14β-dihydroxy-4,5α-epoxy-6α-(3-bromo-indole-7-carboxamido)morphinan] | 0.0192 ± 0.00399 µM
O=C(N[C@H]1CC[C@@]2(O)[C@H]3Cc4ccc(O)c5c4[C@@]2(CCN3CC2CC2)[C@H]1O5)c1cccc2c(-c3ccccc3)c[nH]c12 [Compound 34, 17-Cyclopropylmethyl-3,14β-dihydroxy-4,5α-epoxy-6α-(3-phenyl-indole-7-carboxamido)morphinan] | 0.015 ± 0.00271 µM
CC(C)c1c[nH]c2c(C(=O)N[C@@H]3CC[C@@]4(O)[C@H]5Cc6ccc(O)c7c6[C@@]4(CCN5CC4CC4)[C@H]3O7)cccc12 [Compound 14, 17-Cyclopropylmethyl-3,14β-dihydroxy-4,5α-epoxy-6β-(3-iso-propyl-indole-7-carboxamido)morphinan] | 0.0198 ± 0.00272 µM
N#Cc1cc2cccc(C(=O)N[C@@H]3CC[C@@]4(O)[C@H]5Cc6ccc(O)c7c6[C@@]4(CCN5CC4CC4)[C@H]3O7)c2[nH]1 [Compound 3, 17-Cyclopropylmethyl-3,14β-dihydroxy-4,5α-epoxy-6β-(2-cyano-indole-7-carboxamido)morphinan] | 0.012 ± 0.00062 µM
CC(=O)Nc1c[nH]c2c(C(=O)N[C@H]3CC[C@@]4(O)[C@H]5Cc6ccc(O)c7c6[C@@]4(CCN5CC4CC4)[C@H]3O7)cccc12 [Compound 29, 17-Cyclopropylmethyl-3,14β-dihydroxy-4,5α-epoxy-6α-(3-acet-amido-indole-7-carboxamido)morphinan] | 0.00519 ± 0.00035 µM
O=C(N[C@H]1CC[C@@]2(O)[C@H]3Cc4ccc(O)c5c4[C@@]2(CCN3CC2CC2)[C@H]1O5)c1cccc2c(Cl)c[nH]c12 [Compound 24, 17-Cyclopropylmethyl-3,14β-dihydroxy-4,5α-epoxy-6α-(3-chloro-indole-7-carboxamido)morphinan] | 0.0371 ± 0.00946 µM
O=C(N[C@H]1CC[C@@]2(O)[C@H]3Cc4ccc(O)c5c4[C@@]2(CCN3CC2CC2)[C@H]1O5)c1cccc2cc(Cl)[nH]c12 [Compound 19, 17-Cyclopropylmethyl-3,14β-dihydroxy-4,5α-epoxy-6α-(2-chloro-indole-7-carboxamido)morphinan] | 0.00182 ± 6e-05 µM
O=C(N[C@@H]1CC[C@@]2(O)[C@H]3Cc4ccc(O)c5c4[C@@]2(CCN3CC2CC2)[C@H]1O5)c1cccc2cc(Br)[nH]c12 [Compound 1, 17-Cyclopropylmethyl-3,14β-dihydroxy-4,5α-epoxy-6β-(2-bromo-indole-7-carboxamido)morphinan] | 0.00304 ± 0.00027 µM
O=C(N[C@@H]1CC[C@@]2(O)[C@H]3Cc4ccc(O)c5c4[C@@]2(CCN3CC2CC2)[C@H]1O5)c1cccc2cc(Cl)[nH]c12 [Compound 2, 17-Cyclopropylmethyl-3,14β-dihydroxy-4,5α-epoxy-6β-(2-chloro-indole-7-carboxamido)morphinan] | 0.00242 ± 0.00044 µM
O=C(N[C@@H]1CC[C@@]2(O)[C@H]3Cc4ccc(O)c5c4[C@@]2(CCN3CC2CC2)[C@H]1O5)c1cccc2cc(-c3ccccc3)[nH]c12 [Compound 5, 17-Cyclopropylmethyl-3,14β-dihydroxy-4,5α-epoxy-6β-(2-phenyl-indole-7-carboxamido)morphinan] | 0.0238 ± 0.00396 µM
O=Cc1c[nH]c2c(C(=O)N[C@H]3CC[C@@]4(O)[C@H]5Cc6ccc(O)c7c6[C@@]4(CCN5CC4CC4)[C@H]3O7)cccc12 [Compound 27, 17-Cyclopropylmethyl-3,14β-dihydroxy-4,5α-epoxy-6α-(3-formyl-indole-7-carboxamido)morphinan] | 0.0119 ± 0.00191 µM
CC(C)c1c[nH]c2c(C(=O)N[C@H]3CC[C@@]4(O)[C@H]5Cc6ccc(O)c7c6[C@@]4(CCN5CC4CC4)[C@H]3O7)cccc12 [Compound 31, 17-Cyclopropylmethyl-3,14β-dihydroxy-4,5α-epoxy-6α-(3-iso-propyl-indole-7-carboxamido)morphinan] | 0.0259 ± 0.00569 µM
CC(=O)Nc1c[nH]c2c(C(=O)N[C@@H]3CC[C@@]4(O)[C@H]5Cc6ccc(O)c7c6[C@@]4(CCN5CC4CC4)[C@H]3O7)cccc12 [Compound 12, 17-Cyclopropylmethyl-3,14β-dihydroxy-4,5α-epoxy-6β-(3-acet-amido-indole-7-carboxamido)morphinan] | 0.031 ± 0.00496 µM
Cc1cc2cccc(C(=O)N[C@@H]3CC[C@@]4(O)[C@H]5Cc6ccc(O)c7c6[C@@]4(CCN5CC4CC4)[C@H]3O7)c2[nH]1 [Compound 4, 17-Cyclopropylmethyl-3,14β-dihydroxy-4,5α-epoxy-6β-(2-methyl-indole-7-carboxamido)morphinan] | 0.0159 ± 0.00038 µM
O=C(N[C@@H]1CC[C@@]2(O)[C@H]3Cc4ccc(O)c5c4[C@@]2(CCN3CC2CC2)[C@H]1O5)c1cccc2c(C3CCCCC3)c[nH]c12 [Compound 16, 17-Cyclopropylmethyl-3,14β-dihydroxy-4,5α-epoxy-6β-(3-cyclo-hexyl-indole-7-carboxamido)morphinan] | 0.064 ± 0.00199 µM
O=C(N[C@@H]1CC[C@@]2(O)[C@H]3Cc4ccc(O)c5c4[C@@]2(CCN3CC2CC2)[C@H]1O5)c1cccc2c(-c3ccccc3)c[nH]c12 [Compound 17, 17-Cyclopropylmethyl-3,14β-dihydroxy-4,5α-epoxy-6β-(3-phenyl-indole-7-carboxamido)morphinan] | 0.0493 ± 0.0101 µM
N#Cc1c[nH]c2c(C(=O)N[C@@H]3CC[C@@]4(O)[C@H]5Cc6ccc(O)c7c6[C@@]4(CCN5CC4CC4)[C@H]3O7)cccc12 [Compound 8, 17-Cyclopropylmethyl-3,14β-dihydroxy-4,5α-epoxy-6β-(3-cyano-indole-7-carboxamido)morphinan] | 0.0254 ± 0.00339 µM

Molecular target: MOR (Mus musculus, UniProt P42866)
Sequence (P42866 whole entry): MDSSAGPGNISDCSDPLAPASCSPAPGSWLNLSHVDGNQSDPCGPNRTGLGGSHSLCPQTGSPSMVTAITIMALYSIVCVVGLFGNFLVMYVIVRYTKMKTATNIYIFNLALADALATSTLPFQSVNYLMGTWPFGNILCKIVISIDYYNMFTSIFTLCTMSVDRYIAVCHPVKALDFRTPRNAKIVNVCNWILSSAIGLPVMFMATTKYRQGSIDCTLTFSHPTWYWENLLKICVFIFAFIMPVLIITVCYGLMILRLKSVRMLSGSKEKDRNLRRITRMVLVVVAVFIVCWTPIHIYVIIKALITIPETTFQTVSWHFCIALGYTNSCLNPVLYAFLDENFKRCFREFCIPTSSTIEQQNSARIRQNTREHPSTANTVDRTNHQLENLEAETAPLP
Test: Radioligand competition binding assay, MOR
Conditions: ratio of Ki values DOR/MOR

SMILES | Selectivity δ/μ
Cl.O=Cc1c[nH]c2c(C(=O)N[C@@H]3CC[C@@]4(O)[C@H]5Cc6ccc(O)c7c6[C@@]4(CCN5CC4CC4)[C@H]3O7)cccc12 [Compound 10, 17-Cyclopropylmethyl-3,14β-dihydroxy-4,5α-epoxy-6β-(3-formyl-indole-7-carboxamido)morphinan] | 35.1
